# Paper PMC12197363 (Viruses, 2025)
# Read-outs that look alike come from different tables or passages of the source.
# Key:
# Norovirus 3CL^pro [1] = target: T1, Norovirus 3CL^pro (Norovirus GII.4, UniProt P54634); assay: Cell-based FlipGFP assay of 3CLpro inhibition; design: species or system Norovirus genotype GII.4
# T1 sequence (P54634 1009-1189): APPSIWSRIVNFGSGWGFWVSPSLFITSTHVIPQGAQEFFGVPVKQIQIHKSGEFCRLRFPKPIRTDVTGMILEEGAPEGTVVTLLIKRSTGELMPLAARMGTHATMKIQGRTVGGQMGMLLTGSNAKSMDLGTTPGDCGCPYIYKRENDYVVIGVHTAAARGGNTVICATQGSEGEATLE
# Norovirus 3CL^pro [2] = assay: Western blot of FlipGFP cleavage; type: cell-based; conditions: at higher inhibitor concentrations, compared with C139A control
# c-Met = conditions: quoted in Description column of Table S1; no reference given; cited from earlier work
# VEGFR2 = conditions: quoted in Description column of Table S1; no reference given; cited from earlier work
SMILES,IC50 (Norovirus 3CL^pro [1]),other results
O=c1[nH]c2ccccc2n1C1CCN(Cc2ccc(-c3[nH]c4cc5ncnc5cc4nc3-c3ccccc3)cc2)CC1 [Akt inhibitor VIII],0.59 ± 0.12 µM,
N#Cc1ccc(O[C@H]2CC[C@H](NC(=O)c3ccc(N4CCC(CN5CCN(c6cc7c(cc6F)C(=O)N(C6CCC(=O)NC6=O)C7=O)CC5)CC4)nn3)CC2)cc1Cl (some centres unmarked) [Bavdegalutamide],0.97 ± 0.24 µM,
O=C(Nc1cccc(-c2nc(-c3ccc(NC(=O)c4cccnc4)cc3Cl)no2)c1)Nc1ccc(NC(=O)C2CC2)c(C(F)(F)F)c1 [EGFR-IN-8],0.29 ± 0.09 µM,Proteolytic cleavage of FlipGFP (Western blot) (Norovirus 3CL^pro [2]): proteolytic cleavage was markedly reduced
CC(C)C[C@H](NC(=O)OCc1ccccc1)C(=O)N[C@@H](CC1CCNC1=O)C(O)S(=O)(=O)O (some centres unmarked) [GC376],,"IC50 (Norovirus 3CL^pro [1]; HEK293T cells co-transfected with 3CLpro-FlipGFP and 3CLpro, compound added 6 h, fluorescence read 24 h post-transfection, triplicate, read-out: IC50): 2.28 ± 0.17 µM"
CCc1cc(Nc2nccc(-c3c(-c4ccc(OC)c(C(=O)Nc5c(F)cccc5F)c4)nc4ccccn34)n2)c(OC)cc1N1CCC(N2CCN(S(C)(=O)=O)CC2)CC1 [GSK1904529A],3.94 ± 0.23 µM,
CN(C)C1CCN(C(=O)c2ccc(NC(=O)Nc3ccc(-c4nc(N5CCOCC5)nc(N5CCOCC5)n4)cc3)cc2)CC1 [Gedatolisib],,Proteolytic cleavage of FlipGFP (Western blot) (Norovirus 3CL^pro [2]): proteolytic cleavage was markedly reduced
CN1CCN(C2CCN(C(=O)Nc3cc(Oc4ccc(NC(=O)C5(C(=O)Nc6ccc(F)cc6)CC5)c(F)c4)ccn3)CC2)CC1 [Golvatinib],,IC50 (c-Met): 0.014 µM; IC50 (VEGFR2): 0.016 µM
O=C(c1ccc(Nc2nccc(-c3cc4ccccc4s3)n2)cc1)N1CCC(N2CCCC2)CC1 [IKK 16],5.09 ± 0.16 µM,
CC(=O)N1CCC(c2cc(-c3ccc(NC(=O)c4cccn(-c5ccc(F)cc5)c4=O)cc3F)c3c(N)ncnn23)CC1 [TAM-IN-2],1.22 ± 0.44 µM,
